These results are taken from US12479895B2, “C-terminal CDNF and MANF fragments, pharmaceutical compositions comprising same and uses thereof” (MyNeuroCure Oy, priority 2018, dated 2025).

The test system of one assay is ER stressed SCG neurons. The experiment in a line: Survival of tunicamycin-treated (ER stressed) SCG sympathetic neurons after microinjection. It is filed as cell-based, mice. The note with it: tunicamycin 2 μM; for survived neurons as % compared to neurons grown in the presence of NGF: microinjected into cytoplasm, CDNF (400); for rescue of ER stressed SCG neurons (result in words): protein or peptide microinjected into the cytoplasm, living fluorescent neurons counted after 3 days. The protocol: Non-neuronal cells were removed by extensive preplating. Almost pure neurons were cultured in polyornithine/laminin (Sigma)-coated 35-mm plastic dishes in the small-size standard microislands in the Neurobasal medium and B27 supplement (Invitrogen/Gibco) in the presence of 30 ng/ml mouse nerve growth factor (NGF) (Promega) for 5-6 days. NGF was deprived by extensive washing and addition of the function-blocking anti-NGF antibodies (Roche). The neurons were pressure-microinjected with special neuronal microinjection equipment (Hellman et al., 2011; Hamner et al., 2001; Lindholm et al., 2002; Sun et al., 2001; Yu et al., 2003)(Sun et al., 2001; Sun et al., 2003). For the survival assay, all neurons on the microislands were counted in the beginning (initial number) and the end (three days) of the experiment and expressed as % of initial.
Microinjection of the sympathetic neurons was performed as described earlier (Yu, L. Y., Jokitalo, E., Sun, Y. F., Mehlen, P., Lindholm, D., Saarma, M., and Arumae, U. (2003) J Cell Biol. 163, 987-997). Plasmids for CDNF have been described earlier. Briefly, newborn mouse SCG neurons were grown with NGF (Promega) for 5-6 days then the nuclei were microinjected with the expression plasmids for full-length (FL)-CDNF and C-CDNF together with a reporter plasmid for enhanced green fluorescent protein (EGFP), using vector concentration of 10 ng/ul in each experiment. […] For protein microinjection, recombinant full length (FL)-CDNF, C-CDNF proteins in PBS at 200 ng/ul were microinjected directly into the cytoplasm together with fluorescent reporter Dextran Texas Red (MW 70000 Da) (Invitrogen, Molecular Probes) that facilitates identification of the successfully injected neurons. Next day tunicamycin (2 μM) was added, and after 3 days the living fluorescent neurons were counted. Living fluorescent (EGFP-expressing or Dextran Texas Red-containing) neurons were “blindly” counted three days later and expressed as percent of initial living fluorescent neurons counted 2-3 hours after microinjection. The experiments with plasmids were repeated on independent cultures 5 times for plasmid experiment, whereas four independent protein injection experiments were performed. On average, 50-80 neurons were successfully injected per experimental group. The results were expressed as the mean±the SEM. Data of each experimental group was compared with control plasmid PCR3.1 (vector) or PBS (in the protein injection experiments) by one-way ANOVA and post hoc Dunnett's t test. The null hypothesis was rejected at p<0.05.

The subject of a further assay is dopamine neurons. Nature of the assay: Survival of TH-positive dopamine neurons in dissociated midbrain floor cultures. It counts as cell-based, mouse. The following applies: 5 days; for protection of dopaminergic neurons in culture (result in words): added to the culture medium, TH-positive neurons counted. The protocol: To study the dopamine neurons (Yu et al., 2008; Yu and Arumae, 2008), the midbrain floors were dissected from the ventral mesencephali of 13.5-d-old NMRI strain mouse embryos. Tissues were incubated with 0.5% trypsin (ICN Biomedical), then mechanically dissociated using a large fire-polished Pasteur pipette. The neurons were grown on the poly-L-ornithine-coated (Sigma) 96-well culture plates in DMEM/F12 medium (Invitrogen) containing N2 supplement (Invitrogen) in the presence or absence of GDNF (100 ng/ml) or with CDNF, MANF, C-CDNF and C-MANF polypeptides at different concentrations for five days. Same amount of the neurons were plated to each well at the beginning of the experiments. The cultures without added neurotrophic factors served as the negative control. As the midbrain cultures contain several neuronal types, the cultures were fixed and immunostained with the antibodies to tyrosine hydroxylase (TH) (Millipore), a specific marker for the dopaminergic neurons. Images of each well were scanned by CellInsight™ and immunopositive neurons were counted by CellProfiler and CellProfiler analyst software. Data are expressed as a percentage of GDNF-maintained TH-positive neurons. All experiments were repeated at least three times on the independent cultures. The results were expressed as the mean the SEM and were tested for the significance by either one-way ANOVA and Tukey's post hoc test or by two-tailed Student's t-test. The null hypothesis was rejected at P≤0.05.

The mark [1] stands for this setting: Table 1B (FIG. 16), exp1, counted after 3 days.
Where [2] appears, read: Table 1B (FIG. 16), exp2, counted after 3 days.
The mark [3] stands for this setting: Table 1B (FIG. 16), exp3, counted after 3 days.
Where [4] appears, read: Table 3B (FIG. 17), AVG, 1 ng/ml.
[5] abbreviates: Table 3B (FIG. 17), AVG, 10 ng/ml.
The mark [6] stands for this setting: Table 3B (FIG. 17), AVG, 100 ng/ml.
Setting [7] is: Table 3B (FIG. 17), AVG, 1000 ng/ml.

Regarding “TLDLASVDLRKMRVAELKQILHSWGEECRACAEKTDYVNLIQEPAPKYA (Mutated C-CDNF peptide) [pep13]”, the “survived neurons as % compared to neurons grown in the presence of NGF” value (“survived neurons as % … of NGF” below) in the assay with ER stressed SCG neurons (setting [1]) was 77.41 % NGF; in the assay with ER stressed SCG neurons (setting [2]), 72.46 % NGF; with ER stressed SCG neurons (setting [3]), 80.39 % NGF. In addition, the “rescue of ER stressed SCG neurons (result in words)” value (from here on “rescue of ER stressed SCG neurons”) in the assay on ER stressed SCG neurons was “rescue”. For the same molecule, the “survived neurons as % compared to neurons grown in the presence of GDNF” value (from here on “survived neurons as % … of GDNF”) is 71.07 % GDNF in the assay with dopamine neurons (setting [4]), 86.81 % GDNF in the assay with dopamine neurons (setting [5]), 88.07 % GDNF in the assay on dopamine neurons (setting [6]) and 85.36 % GDNF in the assay on dopamine neurons (setting [7]). Also, the “protection of dopaminergic neurons in culture (result in words)” value in the assay on dopamine neurons is reported as “best protective effect”.
For “TLDLASVDLRKMRVAEPKQILHSWGEECRACAEKTDYVNLIQELAPKYA (Mutated C-CDNF peptide) [pep12]”, the results for the “survived neurons as % … of NGF” value in the assay with ER stressed SCG neurons (setting [1]), with ER stressed SCG neurons (setting [2]) and in the assay on ER stressed SCG neurons (setting [3]) were 86.74 % NGF, 86.15 % NGF and 70.17 % NGF, respectively. The “rescue of ER stressed SCG neurons” value in the assay with ER stressed SCG neurons was “rescue”. Moreover, the “survived neurons as % … of GDNF” value in the assay on dopamine neurons (setting [4]) amounted to 68.57 % GDNF; in the assay on dopamine neurons (setting [5]), 83.1 % GDNF; in the assay on dopamine neurons (setting [6]), 87.93 % GDNF; in the assay on dopamine neurons (setting [7]), 84.16 % GDNF. For the same molecule, the “protection of dopaminergic neurons in culture (result in words)” value with dopamine neurons is given as “best protective effect”.
Take “cerebral dopamine neurotrophic factor [CDNF]”: the “survived neurons as % … of NGF” value with ER stressed SCG neurons (Table 1A (FIG. 14), AVG of exp1-2) is reported as 88.04 % NGF; with ER stressed SCG neurons (Table 1A (FIG. 14), exp1, counted after 3 days) it was 85.71 % NGF; in the assay with ER stressed SCG neurons (Table 1A (FIG. 14), exp2, counted after 3 days) it was 90.36 % NGF; with ER stressed SCG neurons (setting [1]), 86.00 % NGF; in the assay on ER stressed SCG neurons (setting [2]), 71.23 % NGF; with ER stressed SCG neurons (setting [3]) it was 83.33 % NGF. For the same molecule, in the assay on ER stressed SCG neurons (expressed from microinjected plasmids, living fluorescent neurons counted after three days), the “rescue of ER stressed SCG sympathetic neurons (result in words)” value is on record as “rescue”. Also, in the assay on ER stressed SCG neurons, the “rescue of ER stressed SCG neurons” value is on record as “rescue”.

B1: glial cell line-derived neurotrophic factor (protein, UniProt P39905 78-211, looked up)
Glial cell line-derived …: SPDKQMAVLPRRERNRQAAAANPENSRGKGRRGQRGKNRGCVLTAIHLNVTDLGLGYETKEELIFRYCSGSCDAAETTYDKILKNLSRNRRLVSDKVGQACCRPIAFDDDLSFLDDNLVYHILRKHSAKRCGCI
notes: Positive control neurotrophic factor, 100 ng/ml
On to B1, for which the “survived neurons as % … of GDNF” value in the assay on dopamine neurons (Table 3A (FIG. 15), AVG, 100 ng/ml) was 100 % GDNF; with dopamine neurons (Table 3A (FIG. 15), exp1, 100 ng/ml), 100 % GDNF; in the assay with dopamine neurons (Table 3A (FIG. 15), exp2, 100 ng/ml), 100 % GDNF; in the assay on dopamine neurons (Table 3A (FIG. 15), exp3, 100 ng/ml) it was 100 % GDNF; with dopamine neurons (setting [6]), 100 % GDNF.
